The target of experiment [1] is Epidermal growth factor receptor (Homo sapiens, UniProt P00533). The note with it: at 10 µM.
Experiment [2] has as its target T1, Inhibitor of nuclear factor kappa-B kinase subunit epsilon (Homo sapiens) (UniProt Q14164).
T1 sequence (whole entry): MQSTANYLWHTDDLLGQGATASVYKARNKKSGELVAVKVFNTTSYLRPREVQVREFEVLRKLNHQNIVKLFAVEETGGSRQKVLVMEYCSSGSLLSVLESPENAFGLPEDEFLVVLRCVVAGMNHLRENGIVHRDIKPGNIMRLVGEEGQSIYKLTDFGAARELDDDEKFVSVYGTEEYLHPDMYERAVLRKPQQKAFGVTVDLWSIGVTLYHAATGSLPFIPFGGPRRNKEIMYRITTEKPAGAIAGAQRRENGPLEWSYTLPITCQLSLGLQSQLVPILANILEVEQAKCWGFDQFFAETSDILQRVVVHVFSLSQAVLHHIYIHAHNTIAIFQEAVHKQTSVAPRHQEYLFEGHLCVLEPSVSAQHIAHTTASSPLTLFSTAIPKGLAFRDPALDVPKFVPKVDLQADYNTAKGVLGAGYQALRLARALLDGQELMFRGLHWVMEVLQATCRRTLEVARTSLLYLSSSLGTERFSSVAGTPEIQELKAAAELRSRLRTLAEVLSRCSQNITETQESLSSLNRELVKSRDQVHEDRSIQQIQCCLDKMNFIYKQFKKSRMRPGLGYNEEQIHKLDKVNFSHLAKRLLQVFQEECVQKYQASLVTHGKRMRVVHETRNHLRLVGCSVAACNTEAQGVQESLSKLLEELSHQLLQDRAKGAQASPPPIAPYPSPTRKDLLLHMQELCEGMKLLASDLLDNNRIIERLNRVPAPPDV
Nature of the experiment: Selectivity interaction (KinomeScan (DiscoverX)) EUB0001619a IKBKE. The following applies: at 1 µM.

The target of experiment [3] is T2, Hormonally up-regulated neu tumor-associated kinase (Homo sapiens) (UniProt P57058).
T2 sequence (whole entry): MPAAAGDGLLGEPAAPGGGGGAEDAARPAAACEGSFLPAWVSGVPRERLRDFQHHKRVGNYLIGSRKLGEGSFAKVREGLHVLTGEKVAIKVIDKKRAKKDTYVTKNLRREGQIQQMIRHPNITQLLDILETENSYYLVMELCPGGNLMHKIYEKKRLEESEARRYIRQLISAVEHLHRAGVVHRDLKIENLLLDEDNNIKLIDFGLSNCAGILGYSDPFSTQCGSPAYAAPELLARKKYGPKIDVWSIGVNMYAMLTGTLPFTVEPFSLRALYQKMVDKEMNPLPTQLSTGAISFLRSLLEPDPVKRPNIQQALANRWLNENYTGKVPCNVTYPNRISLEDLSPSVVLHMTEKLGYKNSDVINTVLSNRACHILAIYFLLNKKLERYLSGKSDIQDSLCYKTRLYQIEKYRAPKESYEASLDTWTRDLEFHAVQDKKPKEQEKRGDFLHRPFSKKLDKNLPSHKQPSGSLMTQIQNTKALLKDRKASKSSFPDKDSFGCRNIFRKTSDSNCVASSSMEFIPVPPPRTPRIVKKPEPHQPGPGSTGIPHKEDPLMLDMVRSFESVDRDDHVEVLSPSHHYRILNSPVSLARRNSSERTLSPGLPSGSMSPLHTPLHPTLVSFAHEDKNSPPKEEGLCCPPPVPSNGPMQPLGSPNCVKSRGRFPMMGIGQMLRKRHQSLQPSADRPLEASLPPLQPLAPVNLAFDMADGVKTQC
Nature of the experiment: Selectivity interaction (KinomeScan (DiscoverX)) EUB0000666a HUNK. The following applies: at 10 µM.

Experiment [4] concerns the target T3, Serine/threonine-protein kinase BRSK2 (Homo sapiens) (UniProt Q8IWQ3).
T3 sequence (whole entry): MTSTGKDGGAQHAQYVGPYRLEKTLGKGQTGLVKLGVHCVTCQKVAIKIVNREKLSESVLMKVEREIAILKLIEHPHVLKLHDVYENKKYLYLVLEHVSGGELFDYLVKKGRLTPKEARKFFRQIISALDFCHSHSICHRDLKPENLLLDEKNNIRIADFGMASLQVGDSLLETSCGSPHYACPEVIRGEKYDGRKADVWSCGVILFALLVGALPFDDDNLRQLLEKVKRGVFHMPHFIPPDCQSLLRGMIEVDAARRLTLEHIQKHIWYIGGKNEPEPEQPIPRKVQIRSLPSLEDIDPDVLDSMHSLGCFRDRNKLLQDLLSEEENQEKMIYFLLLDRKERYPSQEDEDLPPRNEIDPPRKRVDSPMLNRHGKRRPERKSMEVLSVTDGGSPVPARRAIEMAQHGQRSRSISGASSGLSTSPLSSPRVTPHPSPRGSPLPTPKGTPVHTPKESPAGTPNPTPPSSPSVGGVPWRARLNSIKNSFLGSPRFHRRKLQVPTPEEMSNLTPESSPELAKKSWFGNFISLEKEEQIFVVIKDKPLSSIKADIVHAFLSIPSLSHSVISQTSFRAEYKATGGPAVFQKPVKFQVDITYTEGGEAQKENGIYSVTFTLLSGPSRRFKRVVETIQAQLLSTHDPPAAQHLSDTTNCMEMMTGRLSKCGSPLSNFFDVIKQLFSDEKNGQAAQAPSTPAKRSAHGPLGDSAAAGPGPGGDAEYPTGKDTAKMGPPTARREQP
Nature of the experiment: Selectivity interaction (KinomeScan (DiscoverX)) EUB0000607a BRSK2. The following applies: at 10 µM.

Structures are written as SMILES.

Sequence of Epidermal growth factor receptor (P00533 whole entry): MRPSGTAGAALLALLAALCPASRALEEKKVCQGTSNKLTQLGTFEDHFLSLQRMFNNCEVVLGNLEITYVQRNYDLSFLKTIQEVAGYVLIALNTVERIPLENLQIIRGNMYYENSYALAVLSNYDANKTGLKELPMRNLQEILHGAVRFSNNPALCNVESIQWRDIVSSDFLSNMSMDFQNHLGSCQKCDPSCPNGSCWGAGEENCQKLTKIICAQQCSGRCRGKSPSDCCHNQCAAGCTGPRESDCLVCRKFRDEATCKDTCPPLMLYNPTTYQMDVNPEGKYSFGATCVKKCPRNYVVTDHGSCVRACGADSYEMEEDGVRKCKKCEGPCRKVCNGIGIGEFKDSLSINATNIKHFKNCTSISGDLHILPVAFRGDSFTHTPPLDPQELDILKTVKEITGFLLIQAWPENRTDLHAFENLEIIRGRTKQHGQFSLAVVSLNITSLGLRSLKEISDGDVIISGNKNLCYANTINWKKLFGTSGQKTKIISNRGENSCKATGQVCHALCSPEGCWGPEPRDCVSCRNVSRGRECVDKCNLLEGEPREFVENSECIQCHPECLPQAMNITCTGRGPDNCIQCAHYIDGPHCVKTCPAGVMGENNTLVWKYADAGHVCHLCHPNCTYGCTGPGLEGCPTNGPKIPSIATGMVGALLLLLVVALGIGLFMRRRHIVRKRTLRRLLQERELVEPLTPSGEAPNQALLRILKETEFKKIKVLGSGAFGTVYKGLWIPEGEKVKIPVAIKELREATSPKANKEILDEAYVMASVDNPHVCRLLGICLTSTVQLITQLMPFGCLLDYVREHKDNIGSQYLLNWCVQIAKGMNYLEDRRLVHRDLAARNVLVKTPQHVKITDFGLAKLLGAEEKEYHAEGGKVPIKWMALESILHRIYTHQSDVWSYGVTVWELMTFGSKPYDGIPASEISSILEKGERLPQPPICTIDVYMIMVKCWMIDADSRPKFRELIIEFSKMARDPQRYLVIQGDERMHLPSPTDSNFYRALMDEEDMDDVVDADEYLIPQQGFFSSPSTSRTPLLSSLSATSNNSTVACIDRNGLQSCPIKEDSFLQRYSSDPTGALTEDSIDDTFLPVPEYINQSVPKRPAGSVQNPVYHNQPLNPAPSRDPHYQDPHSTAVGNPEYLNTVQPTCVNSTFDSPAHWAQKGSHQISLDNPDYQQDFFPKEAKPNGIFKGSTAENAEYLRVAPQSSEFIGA

Compound `COCC(=O)NC/C=C/c1ccc2ncnc(Nc3ccc(Oc4ccc(C)nc4)c(C)c3)c2c1` [CP-724714] returned a % of control in experiment [1] of 0.2%. On to `N#Cc1cccc(-c2c[nH]c3ncnc(N4CCOCC4)c23)c1`, for which, in experiment [2], the % of control was 100%. In turn, `O=C(NOC[C@H](O)CO)c1ccc(F)c(F)c1Nc1ccc(I)cc1F` came in with a % of control in experiment [3] of 100%.

The compound `CNC(=O)Nc1ccc(-c2nc(N3CC4CCC(C3)O4)c3cnn(C4CCC5(CC4)OCCO5)c3n2)cc1` returned a % of control in experiment [4] of 100%.
